SMILES strings stand for the structures. Read-outs that look alike come from different tables or passages of the source.

The subject of one series is H460 cells. Kind of series: cells. The class given is cell-based, human.
The test system of a further series is A549 cells. Kind of series: cells. Type of series: cell-based, human.
Another series concerns H1299 cells. Put plainly: cells. The class given is cell-based, human.
Another series deals with CL1-5 cells. Kind of series: alamarBlue in vitro cytotoxicity assay. The class given is cell-based, human. A general note: Alamar Blue is a resazurin reagent that responds to reducing activity.
For the next series, the system named is CL141T cells. Put plainly: cells. The class given is cell-based, human.
A further series relates to H1650 cells. Put plainly: cells. The class given is cell-based, human.
The subject of a further series is H1975 cells. Kind of series: cells. The class given is cell-based, human.
The test system of the next series is CL100 cells. Put plainly: cells. The class given is cell-based, human.
The test system of a further series is CL97 cells. Kind of series: cells. Type of series: cell-based, human.
The subject of the next series is PC9 cells. Put plainly: cells. The class given is cell-based, human.
The subject of the next series is PC9/gef B4 cells. Put plainly: cells. Type of series: cell-based, human. The settings on record: for resistance factor of PC9/gef B4 to PC9 cells: IC50 ratio, number in brackets.
For a further series, the system named is MES-SA. Put plainly: cytotoxicity in multiple drug-resistant and cisplatin-resistant cells. The class given is cell-based.
A further series concerns MES-SA/dx5. The series is described as above. Type of series: cell-based. To be noted: for resistance factor: MES-SA/dx5 vs MES-SA.
The subject of another series is NTUB1. Described as above. The class given is cell-based.
For a further series, the system named is NTUB1/P. The description is as above. The class given is cell-based.
Another series concerns H460 xenograft. Kind of series: H460 xenograft in nude mice. The class given is in vivo. The settings on record: BO-1978 40 mg/kg QDx5, cisplatin 6 mg/kg every 4 days x3.
In the next series the test system is PC9 xenograft. Put plainly: PC9 xenograft in nude mice. The class given is in vivo. To be noted: i.v., BO-1978 40 mg/kg, gefitinib 10 mg/kg, daily for 5 consecutive days.
A further series deals with PC9/gef B4 xenograft. Kind of series: PC9/gef B4 xenograft in nude mice. Type of series: in vivo. The settings on record: i.v., BO-1978 40 mg/kg, gefitinib 10 mg/kg, daily for 5 consecutive days.
For the next series, the system named is H1650 xenograft. Put plainly: H1650 xenograft in nude mice. The settings on record: i.v., BO-1978 40 mg/kg, gefitinib 10 mg/kg, daily for 5 consecutive days. Type of series: in vivo.
In the next series the test system is H1975 xenograft. Kind of series: H1975 xenograft in nude mice. The class given is in vivo. The settings on record: i.v., BO-1978 40 mg/kg, gefitinib 10 mg/kg, daily for 5 consecutive days.
The test system of the next series is H1650-Luc cells. Put plainly: orthotopic lung tumor model, IVIS. The class given is in vivo, nude mice. To be noted: BO-1978 40 mg/kg, gefitinib 10 mg/kg, daily for 5 consecutive days.
The subject of another series is CCRF-CEM. Put plainly: cytotoxicity in multiple drug-resistant and cisplatin-resistant cells. Type of series: cell-based. The settings on record: Homo sapiens.
The next series has as its system CCRF/VBL. The series is described as above. The class given is cell-based.
Another series has as its system KB. The series is described as above. The class given is cell-based. The settings on record: Homo sapiens.
The next series relates to KB/vin10. The series is described as above. The class given is cell-based.

Broadly, the IC50 is the midpoint of a concentration-inhibition curve. Read a low IC50 as greater potency in that assay. With `N.N.[Cl][Pt][Cl]` [Cisplatin], the IC50 came out at 9.94 ± 0.47 µM with H460 cells (H460, 72 hours, alamarBlue); 31.1 ± 3.03 µM in the series with A549 cells (A549, 72 hours, alamarBlue); 16.5 ± 0.9 µM in the series with H1299 cells (H1299, 72 hours, alamarBlue); 2.82 ± 0.28 µM in the series with CL1-5 cells (CL1-5, 72 hours, alamarBlue); 2.8 ± 0.36 µM in the series on CL141T cells (72 hours, alamarBlue); 36.5 ± 8.14 µM with H1650 cells (H1650, 72 hours, alamarBlue). Also, the IC50 in the series on H1975 cells (H1975, 72 hours, alamarBlue) was 16.1 ± 4.03 µM; in the series with CL100 cells (CL100, 72 hours, alamarBlue), 6.21 ± 3.64 µM; in the series with CL97 cells (CL97, 72 hours, alamarBlue) it was 14.7 ± 0.34 µM; with PC9 cells (PC9, 72 hours, alamarBlue) it was 16.4 ± 3.29 µM; with PC9/gef B4 cells (PC9/gef B4, 72 hours, alamarBlue), 34.3 ± 1.62 µM; in the series on MES-SA, 1.82 ± 0.66 µM. Further, the IC50 was determined as 2.27 ± 0.73 µM in the series with MES-SA/dx5 (MES-SA/dx5), 2.97 ± 1.43 µM with NTUB1 and 62.1 ± 15.3 µM in the series on NTUB1/P (NTUB1/P). The “resistance factor of PC9/gef B4 to PC9 cells” value in the series on PC9/gef B4 cells is recorded as 2.10. For the same compound, the resistance factor stood at 1.25 x in the series with MES-SA/dx5 and 20.9 x in the series on NTUB1/P (NTUB1/P vs NTUB1). In addition, the body weight loss result in the series on H460 xenograft (H460 xenograft mice) is “approximately 12%”. Besides, the “H460 xenograft tumor size suppressed/reduced to” value in the series on H460 xenograft (i.v.) was 52%.
For `COc1cccc2c1C(=O)c1c(O)c3c(c(O)c1C2=O)C[C@@](O)(C(=O)CO)C[C@@H]3O[C@H]1C[C@H](N)[C@H](O)[C@H](C)O1` [Doxorubicin], the IC50 with MES-SA (Homo sapiens) came out at 0.038 ± 0.003 µM; in the series on MES-SA/dx5 (Homo sapiens, MES-SA/Dx5), 2.3 ± 0.98 µM. In the series on MES-SA/dx5, this compound showed a resistance factor of 60.52 x.
For the compound `COc1cc([C@@H]2c3cc4c(cc3[C@@H](O[C@@H]3O[C@@H]5CO[C@@H](C)O[C@H]5[C@H](O)[C@H]3O)[C@H]3COC(=O)[C@H]23)OCO4)cc(OC)c1O` [Etoposide], the IC50 stood at 7.31 ± 2.56 µM with H460 cells (Homo sapiens, NCI-H460, 72 h); 22.4 ± 14.4 µM with A549 cells (Homo sapiens, A549, 72 h); 15.6 ± 7.45 µM in the series on H1299 cells (Homo sapiens, NCI-H1299, 72 h); 12.6 ± 3.93 µM in the series with CL1-5 cells (Homo sapiens, CL1-5, 72 h); 23.3 ± 3.34 µM in the series with CL141T cells (Homo sapiens, 72 h); 32.5 ± 17.6 µM in the series with H1650 cells (Homo sapiens, NCI-H1650, 72 h). Also, the IC50 came to 14.1 ± 2.9 µM in the series with H1975 cells (Homo sapiens, NCI-H1975, 72 h); 4.3 ± 3.87 µM with CL100 cells (Homo sapiens, 72 h); 24.4 ± 17.4 µM in the series on CL97 cells (Homo sapiens, CL97, 72 h); 19.3 ± 6.28 µM in the series with PC9 cells (Homo sapiens, PC-9, 72 h); 36.7 ± 20.5 µM with PC9/gef B4 cells (Homo sapiens, 72 h). Besides, the “resistance factor of PC9/gef B4 to PC9 cells” value with PC9/gef B4 cells came out at 1.90.
With `COc1cc2ncnc(Nc3ccc(F)c(Cl)c3)c2cc1OCCCN1CCOCC1` [Gefitinib, reference compound], the “suppression of xenograft tumor growth” value in the series on PC9 xenograft was “approximately 36%”; with PC9/gef B4 xenograft, ~49%; in the series on H1650 xenograft, ~51%; with H1975 xenograft it was ~1%. In addition, the “orthotopic growth of H1650-Luc cells” value in the series with H1650-Luc cells is “resistant to gefitinib treatment alone”.
For `CCc1c2c(nc3ccc(OC(=O)N4CCC(N5CCCCC5)CC4)cc13)-c1cc3c(c(=O)n1C2)COC(=O)[C@]3(O)CC` [Irinotecan], the IC50 with H460 cells (Homo sapiens, NCI-H460, 72 h) was 4.18 ± 1.29 µM; in the series with A549 cells (Homo sapiens, A549, 72 h), 9.29 ± 3.31 µM; in the series on H1299 cells (Homo sapiens, NCI-H1299, 72 h), 24.5 ± 1.85 µM; in the series on H1650 cells (Homo sapiens, NCI-H1650, 72 h), 17.1 ± 4.2 µM; with H1975 cells (Homo sapiens, NCI-H1975, 72 h) it was 36.8 ± 14.4 µM; with PC9 cells (Homo sapiens, PC-9, 72 h) it was 11.2 ± 1.97 µM.
Regarding `CC[C@]1(O)C[C@H]2CN(CCc3c([nH]c4ccccc34)[C@@](C(=O)OC)(c3cc4c(cc3OC)N(C=O)[C@H]3[C@@](O)(C(=O)OC)[C@H](OC(C)=O)[C@]5(CC)C=CCN6CC[C@]43[C@@H]65)C2)C1` [Vincristine, reference compound], the IC50 in the series on CCRF-CEM was 0.00223 ± 0.00019 µM; in the series with CCRF/VBL it was 2.13 ± 0.249 µM; in the series on KB it was 0.00216 ± 0.00025 µM; in the series on KB/vin10 (Homo sapiens, KB-VIN10) it was 0.51 ± 0.17 µM. Besides, the resistance factor in the series on CCRF/VBL (CCRF/VBL vs CCRF-CEM) was found to be 954.3 x; with KB/vin10 (KB/vin10 vs KB) it was 236.1 x.
